Results taken from patent publication US12589158B2 (priority 2022, dated 2026).
Where a SMILES comes first, the peptide text is derived from it.

Tests used:
[1] = test system: db/db mice; experiment: Pharmacodynamics in db/db mice, single subcutaneous administration (blood glucose); type: in vivo; settings: Group 1, single s.c. 10 nmol/kg, longest time with random blood glucose P<0.05 vs. vehicle
Description: The “inhibition of blood glucose AUC” as disclosed in the present invention is the reduction percentage of blood glucose AUC in the group taken the test compound as compared with the group taken the Vehicle. Inhibition of blood glucose AUC=(blood glucose AUCVehicle-blood glucose AUCtest compound)/blood glucose AUCVehicle.
In this study, 8-9 week old male db/db mice are used. The db/db mice are placed in an individual ventilated cage (IVC) facility with a controlled temperature (20-26° C.) and humidity (40-70%) and a controlled 12h: 12 h light-dark cycle. The mice received food and water ad libitum. Blood is sampled at the tail tip, and the fasting blood glucose is measured by a Roche blood glucose meter. The mice are randomly divided into groups according to the initial blood glucose and initial body weight (n=6/group), and each group had similar body weight and blood glucose.
After a single subcutaneous administration, the random blood glucoses are recorded at the set time point (0 to 120 hours, the recording of the random blood glucose is stopped until there is no difference between the random blood glucose of the compound and that of the vehicle group), and the daily body weight and food intake are also recorded. The data results are statistically analyzed using GraphPad Prism8, and the statistical differences among the groups are analyzed following a T-Test. […]

[2] = biological target: T1, human GLP-1 receptor (Homo sapiens, UniProt P43220); experiment: In vitro binding activity to human GLP-1 receptor ([125I]GLP-1, crude cellular membranes); settings: ratio of the Ki value of the endogenous ligand to the Ki value of the test compound; larger = stronger binding
T1 construct: expressed in transfected cells; crude membranes
Description: 89 μL of membrane dissolved in binding buffer (50 mM Hepes, pH 7.4, 5 mM MgCl2, 5 mM EDTA, 0.005% TWEEN, 0.005% HSA) is transferred to a 96-well test plate (5 μg/well). The compound is serially diluted in DMSO, and then, 1 μL of the diluted compound or 100% DMSO is added to the test plate containing the membrane solution. 10 μL of [^125I] […] The test plate is left at room temperature for 90 minutes. The membrane complexes are harvested into a GF/B plate pre-coated with 0.5% PEI by using a Cell Harvester, and washed for 3 times with 500 μL of pre-cooled elution buffer (50 mM Hepes, pH 7.4, 500 mM NaCl) at 4° C. After drying at 37° C. for 2 hours, 50 μL of scintillation fluid is added to each well. The plate is read with a MicroBeta2 scintillation counter after sealing and settling for at least 1 hour so as to determine the membrane bound radioligand level.
(§1) The absolute IC50 concentration of the compound is derived by non-linear regression of the binding percent of [^125I] […] The IC50 concentration is converted to Ki (Ki is the inhibition constant) using the Cheng-Prusoff equation.

[3] = biological target: T2, human GIP receptor (Homo sapiens, UniProt P48546); experiment: In vitro binding activity to human GIP receptor ([125I]GIP, crude cellular membranes); settings: ratio of the Ki value of the endogenous ligand to the Ki value of the test compound; larger = stronger binding
T2 construct: expressed in transfected cells; crude membranes
T2 sequence (P48546 22-466): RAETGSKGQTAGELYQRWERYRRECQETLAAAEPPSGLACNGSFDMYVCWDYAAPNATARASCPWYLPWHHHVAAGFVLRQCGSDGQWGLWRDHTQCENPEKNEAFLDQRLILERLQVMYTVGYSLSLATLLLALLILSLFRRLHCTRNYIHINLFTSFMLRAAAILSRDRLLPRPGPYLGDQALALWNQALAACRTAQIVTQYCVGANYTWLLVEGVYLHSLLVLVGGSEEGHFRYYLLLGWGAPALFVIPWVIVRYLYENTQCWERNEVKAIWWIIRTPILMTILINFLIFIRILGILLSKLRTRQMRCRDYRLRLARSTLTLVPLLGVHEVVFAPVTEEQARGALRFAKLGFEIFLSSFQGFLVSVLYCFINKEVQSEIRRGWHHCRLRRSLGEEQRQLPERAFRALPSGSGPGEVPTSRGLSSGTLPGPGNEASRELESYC
Description: The compound is serially diluted in DMSO, and then, 2 μL of the diluted compounds or 100% DMSO is added to the test plate containing the membrane solution. […] The test plate is left at room temperature for 90 minutes. […] After drying at 37° C. for 2 hours, 50 μL of scintillation fluid is added to each well. The plate is read with a MicroBeta2 scintillation counter after sealing and settling for at least 1 hour so as to determine the membrane bound radioligand level.
as §1

T1 sequence (P43220 24-463): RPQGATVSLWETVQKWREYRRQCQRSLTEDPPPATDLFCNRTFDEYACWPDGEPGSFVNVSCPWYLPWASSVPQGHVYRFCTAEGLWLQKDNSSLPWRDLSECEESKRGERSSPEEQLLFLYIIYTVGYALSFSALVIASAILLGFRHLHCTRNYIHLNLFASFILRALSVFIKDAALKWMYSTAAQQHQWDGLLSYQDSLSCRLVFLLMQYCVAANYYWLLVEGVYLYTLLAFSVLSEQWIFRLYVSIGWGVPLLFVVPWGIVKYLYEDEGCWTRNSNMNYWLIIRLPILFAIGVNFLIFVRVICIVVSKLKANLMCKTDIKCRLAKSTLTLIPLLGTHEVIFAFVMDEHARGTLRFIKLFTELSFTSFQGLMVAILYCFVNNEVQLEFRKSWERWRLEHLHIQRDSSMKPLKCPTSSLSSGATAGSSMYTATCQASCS

CC[C@H](C)[C@H](NC(=O)C(C)(C)NC(=O)[C@H](Cc1ccc(O)cc1)NC(=O)[C@H](CC(=O)O)NC(=O)[C@H](CO)NC(=O)[C@@H](NC(=O)C(C)(Cc1ccccc1)NC(=O)[C@@H](NC(=O)CNC(=O)[C@H](CCC(=O)O)NC(=O)C(C)(C)NC(=O)[C@@H](N)Cc1ccc(O)cc1)[C@@H](C)O)[C@@H](C)O)C(=O)NC(C)(C)C(=O)N[C@@H](CC(C)C)C(=O)N[C@@H](CC(=O)O)C(=O)N[C@@H](CCCCN)C(=O)N[C@@H](CCC(N)=O)C(=O)N[C@@H](C)C(=O)N[C@@H](CCC(N)=O)C(=O)N[C@@H](C)C(=O)N[C@@H](CCC(=O)O)C(=O)N[C@@H](Cc1ccccc1)C(=O)N[C@H](C(=O)N[C@@H](CCCCN)C(=O)N[C@@H](Cc1c[nH]c2ccccc12)C(=O)N[C@@H](CC(C)C)C(=O)N[C@@H](CC(C)C)C(=O)N[C@@H](CCCCN)C(=O)NCC(=O)NCC(=O)N1CCC[C@H]1C(=O)N[C@@H](CO)C(=O)N[C@@H](CO)C(=O)NCC(=O)N[C@@H](C)C(=O)N1CCC[C@H]1C(=O)N1CCC[C@H]1C(=O)N1CCC[C@H]1C(=O)N[C@@H](CO)C(=O)N[C@@H](CCCCN)C(N)=O)C(C)C (stereo partly drawn) [P001, reference compound] (HELM PEPTIDE1{Y.[Aib].E.G.T.[CC(Cc1ccccc1)(N[*:1])C(=O)[*:2]].T.S.D.Y.[Aib].I.[Aib].L.D.K.Q.A.Q.A.E.F.V.K.W.L.L.K.G.G.P.S.S.G.A.P.P.P.S.K.[am]}$$$$V2.0; N-terminus assumed)
Hypoglycemic Duration [1]: 32 h | GLP-1R Ki ratio [2]: 19.52 | GIPR Ki ratio [3]: 8.82
